Measurements as given in patent US5578725A, “Delta opioid receptor antagonists” (priority 1995, dated 1996).
Where “and” joins values, the source holds several entries; their conditions need not be identical. Equal entries are not always repeated. Entries after “also recorded” stand apart in the source; their conditions may differ. Structures can show the parent of a compound that is named as a salt. Where two headings read alike, the source gives them in different places.

Key:
[1] = target: T1, κ (Cavia porcellus, UniProt P41144); assay: Binding to κ sites, competition with [3H]U69593, guinea pig brain membranes; settings: geometric mean of three replicates
T1 construct: Guinea Pig Brain Membranes; from tissue; host or cells: guinea pig brain membranes
Method: (§1) The opioid receptor affinities of the target compounds were determined on guinea pig membranes employing a modification of the method of Werling et al., J. Pharmacol. Exp. Ther., 233, 722 (1986).

[2] = target: T2, δ1 (Cavia porcellus, UniProt A0A286XTF2); assay: biochemical; type: binding, guinea pig
T2 construct: Guinea Pig Brain Membranes; from tissue; host or cells: guinea pig brain membranes
Method: as §1

[3] = test system: δ1; assay: biochemical; type: binding, guinea pig; settings: for preference between δ1 and δ2 putative binding sites (in words): [3H]DPDPE vs [3H]DSLET
Method: as §1

[4] = test system: δ2; assay: biochemical; type: binding, guinea pig; settings: DSLET vs DPDPE
Method: as §1

[5] = target: T3, μ (Mus musculus, UniProt P42866); assay: Tail-flick assay, antagonism of morphine (μ) antinociception; type: in vivo, male Swiss-Webster mice; settings: for ED50 Ratio (95% C.L.): ED50 with antagonist/control ED50, morphine s.c., antagonist 20 pmol/kg i.c.v.
T3 construct: male Swiss-Webster mice; from tissue; host or cells: living mouse (male Swiss-Webster)

[6] = target: T4, κ (Mus musculus, UniProt P33534); type: in vivo, male Swiss-Webster mice; settings: for ED50 Ratio (95% C.L.): mouse, in vivo
T4 construct: male Swiss-Webster mice; from tissue; host or cells: living mouse (male Swiss-Webster)

[7] = target: T5, δ2 (Mus musculus, UniProt P32300); assay: Tail-flick assay, antagonism of DSLET (δ2) antinociception; type: in vivo, male Swiss-Webster mice; settings: for ED50 Ratio (95% C.L.): ED50 with antagonist/control ED50, DSLET i.c.v., antagonist 20 pmol/kg i.c.v.
T5 construct: male Swiss-Webster mice; from tissue; host or cells: living mouse (male Swiss-Webster)

[8] = target: δ1 (Mus musculus, UniProt P32300); settings: for ED50 Ratio (95% C.L.): ED50 with antagonist/control ED50, DPDPE i.c.v.; for antagonist potency, central vs peripheral delivery (in words): central (i.c.v.) vs peripheral (i.v.); for Dose required to double the ED50 of DPDPE, i.c.v. / Dose required to double the ED50 of DPDPE, i.v.: antagonist dose/(ED50 ratio - 1); for antagonism of DPDPE antinociception (in words): i.v. or i.c.v., mice
[9] = target: δ opioid receptors (Mus musculus, UniProt P32300); assay: Antagonism of DADLE (δ) in electrically stimulated mouse vas deferens (MVD) preparation; settings: for Kb: Ke (nM); for IC50 ratio DADLE(δ): 15 min preincubation
[10] = target: μ opioid receptor (Cavia porcellus, UniProt A0ACM8Q262); settings: GPI, morphine, antagonist 100 nM
[11] = target: κ opioid receptor (Cavia porcellus, UniProt P41144); settings: GPI, ethylketazocine, antagonist 100 nM
[12] = target: T6, δ2 (Cavia porcellus, UniProt A0A286XTF2); assay: biochemical; type: binding, guinea pig
T6 construct: Guinea Pig Brain Membranes; from tissue; host or cells: guinea pig brain membranes
Method: as §1

[13] = test system: δ2; settings: Jiang et al.; Korlipara et al.; cited from earlier work
[14] = compared with 2 or 3; cited from earlier work
[15] = test system: rats; settings: compared to peptidyl delta-opioid receptor antagonists; Ser. No. 07/750,109; cited from earlier work
[16] = MVD, DADLE, Ke = [antagonist]/(IC50 ratio - 1), antagonist 100 nM
[17] = MVD DADLE IC50 ratio / GPI EK IC50 ratio
[18] = MVD DADLE IC50 ratio / GPI morphine IC50 ratio
[19] = using calculated IC50 ratio (238) based on 100 nM of 7

| Compound | Ki Selectivity Ratio δ1/δ2 [3] | Kb [9, 16] | IC50 Selectivity Ratio δ/κ [9, 17] | IC50 Selectivity Ratio δ/μ [9, 18] | IC50 ratio DADLE(δ) ([9]; MVD, antagonist 100 nM) | IC50 ratio M(μ) [10] | IC50 ratio EK (κ) [11] | Ki [2] | Ki Selectivity Ratio κ/δ1 [3] | Ki Selectivity Ratio μ/δ1 [3] | Ki [12] | further results |
| --- | --- | --- | --- | --- | --- | --- | --- | --- | --- | --- | --- | --- |
| O=C(O)CNC(=O)c1cccc2c3c([nH]c12)[C@@H]1Oc2c(O)ccc4c2[C@@]12CCN(CC1CC1)[C@H](C4)[C@]2(O)C3 [Compound 2, 7'-(Carboxamidoglycine)-17-(cyclopropylmethyl)-6,7-dehydro-3,14-dihydroxy-4,5α-epoxy-6,7,2',3'-indolomorphinan hydrochloride] | 8.2 | 3.2 nM and 1 to 5 nM | 30 | 21 | 32 ± 8 | 1.5 ± 0.1 | 1.1 ± 0.2 | – | – | – | – | Ki [1]: 162 nM; affinity for δ1 sites relative to NTI (times greater) [2]: 2 times; preference between δ1 and δ2 putative binding sites (in words) [3]: greater affinity for δ2 relative to δ1 putative binding sites; factor by which compound competed more effectively with [3H]DSLET than with [3H]DPDPE for δ sites [4]: 8-10; ED50 Ratio (95% C.L.) [5]: 0.9 (0.8-1.1); antagonism of morphine antinociception (in words) ([5]; mice): No significant antagonism; antagonism of U50488 antinociception (in words) ([6]; mice): No significant antagonism; ED50 Ratio (95% C.L.) [6]: 0.8 (0.7-0.9); ED50 Ratio (95% C.L.) [7]: 1.1 (0.8-1.6); antagonism of DSLET antinociception (in words) ([7]; mice): No significant antagonism; ED50 Ratio (95% C.L.) ([8]; antagonist 20 pmol/kg i.c.v.): 5.3 (3.6-7.7); ED50 Ratio (95% C.L.) ([8]; antagonist 0.9 μmol/kg i.v.): 2.7 (1.9-4.0); antagonist potency, central vs peripheral delivery (in words) [8]: highly potent δ opioid antagonists when administered centrally, and many orders of magnitude less potent when delivered by the peripheral route; Dose required to double the ED50 of DPDPE, i.c.v. [8]: 4.7 pmol/kg; antagonism of DPDPE antinociception (in words) [8]: effectively antagonized the antinociceptive effect of the δ1 agonist, DPDPE; Dose required to double the ED50 of DPDPE, i.v. [8]: 0.53 µmol/kg; in vivo δ subtype selectivity (in words) ([8]; mouse, in vivo): antagonized the δ1 agonist, DPDPE, but not the δ2 agonist, DSLET; i.v./i.c.v. dose ratio relative to that of NTI (times greater) [8]: 15 |
| O=C(O)C[C@H](NC(=O)c1cccc2c3c([nH]c12)[C@@H]1Oc2c(O)ccc4c2[C@@]12CCN(CC1CC1)[C@H](C4)[C@]2(O)C3)C(=O)O [Compound 3, 7'-(Carboxamido-L-aspartate)-17-(cyclopropylmethyl)-6,7-dehydro-3,14-dihydroxy-4,5α-epoxy-6,7,2',3'-indolomorphinan hydrochloride] | 0.3 | 1.1 nM and 1 to 5 nM | 43 | 67 | 89 ± 20 | 1.3 ± 0.5 | 2.1 ± 0.6 | 0.14 nM | 6246 | 2574 | 0.41 nM | preference between δ1 and δ2 putative binding sites (in words) ([3]; hydrochloride): modest preference for [^3 H]DPDPE sites; also recorded: modest preference for δ1 over δ2 sites; ED50 Ratio (95% C.L.) [5]: 1.0 (0.7-1.5); ED50 Ratio (95% C.L.) [6]: 0.7 (0.4-1.2); ED50 Ratio (95% C.L.) [7]: 0.5 (0.3-1.1); ED50 Ratio (95% C.L.) ([8]; antagonist 0.8 μmol/kg i.v.): 2.3 (1.7-3.1); ED50 Ratio (95% C.L.) ([8]; antagonist 20 omol/kg (i.c.v.) as printed): 2.6 (2.0-3.6); antagonist potency, central vs peripheral delivery (in words) [8]: highly potent δ opioid antagonists when administered centrally, and many orders of magnitude less potent when delivered by the peripheral route; Dose required to double the ED50 of DPDPE, i.c.v. [8]: 12.5 pmol/kg; antagonism of DPDPE antinociception (in words) [8]: selectively antagonized DPDPE; Dose required to double the ED50 of DPDPE, i.v. [8]: 0.62 µmol/kg; in vivo δ subtype selectivity (in words) ([8]; mouse, in vivo): antagonized the δ1 agonist, DPDPE, but not the δ2 agonist, DSLET; Ratio (i.v./i.c.v.) of doses required to produce equivalent antagonism of DPDPE-induced antinociception ([8]; mouse, in vivo, hydrochloride): 49,600 and > 49,000; i.v./i.c.v. dose ratio relative to that of NTI (times greater) [8]: 7 |
| NCCC[C@H](NC(=O)c1cccc2c3c([nH]c12)[C@@H]1Oc2c(O)ccc4c2[C@@]12CCN(CC1CC1)[C@H](C4)[C@]2(O)C3)C(=O)O [Compound 4, 7'-(Carboxamido L-ornithine)-17-(cyclopropylmethyl)-6,7-dehydro-3,14-dihydroxy-4,5α-epoxy-6,7,2',3'-indolomorphinan hydrochloride] | 11.3 | 1.8 nM and 1 to 5 nM | 63 | 20 | 58 ± 15 | 3.0 ± 1 | 0.9 ± 0.0 | 0.18 nM | 320 | 756 | 0.015 nM | preference between δ1 and δ2 putative binding sites (in words) [3]: greater affinity for δ2 relative to δ1 putative binding sites; factor by which compound competed more effectively with [3H]DSLET than with [3H]DPDPE for δ sites [4]: 8-10 |
| N=C(N)NCCC[C@H](NC(=O)c1cccc2c3c([nH]c12)[C@@H]1Oc2c(O)ccc4c2[C@@]12CCN(CC1CC1)[C@H](C4)[C@]2(O)C3)C(=O)O [Compound 5, 7'-(Carboxamido-L-arginine)-17-(cyclopropylmethyl)-6,7-dehydro-3,14-dihydroxy-4,5α-epoxy-6,7,2',3'-indolomorphinan hydrochloride] | 1.9 | 3.3 nM and 1 to 5 nM | 27 | 24 | 31 ± 5 | 1.3 ± 0.6 | 1.2 ± 0.5 | 0.16 nM | 1181 | 2096 | 0.083 nM | – |
| NCCCC[C@H](NC(=O)c1cccc2c3c([nH]c12)[C@@H]1Oc2c(O)ccc4c2[C@@]12CCN(CC1CC1)[C@H](C4)[C@]2(O)C3)C(=O)O [Compound 6, 7'-(N(α)-Carboxamido-L-lysine)-17-(cyclopropylmethyl)-6,7-dehydro-3,14dihydroxy-4,5α-epoxy-6,7,2',3'-indolomorphinan hydrochloride] | 0.4 | 5.2 nM and 1 to 5 nM | 20 | 20 | 20 ± 4 | 1.0 ± 0.4 | 1.1 ± 0.0 | 0.3 nM | 134 | 719 | 0.75 nM | preference between δ1 and δ2 putative binding sites (in words) ([3]; hydrochloride): modest preference for [^3 H]DPDPE sites; also recorded: modest preference for δ1 over δ2 sites |
| O=C(O)c1cccc2c3c([nH]c12)[C@@H]1Oc2c(O)ccc4c2[C@@]12CCN(CC1CC1)[C@H](C4)[C@]2(O)C3 [Compound 7, 7'-Carboxy-17-(cyclopropylmethyl)-6,7-dehydro-3,14-dihydroxy-4,5α-epoxy-6,7,2',3'-indolomorphinan hydrochloride] | 0.8 | – | – | – | – | 2.0 ± 0.3 | 1.0 ± 0.2 | 0.013 nM | 3246 | 1846 | 0.016 nM | Ki [1]: 42 nM; affinity for δ1 sites relative to NTI (times greater) [2]: 6 times; affinity for δ sites (in words) ([2]; δ1 and δ2 sites, guinea pig membranes): high affinity for δ sites; δ opioid receptor antagonist potency (in words) [9]: δ antagonist potency approaching that of NTI; Kb ([9]; MVD, DADLE, concentration of 7 was 10 nM): 0.4 nM; calculated IC50 ratio based on 100 nM of 7 ([9]; MVD, DADLE, calculated for 100 nM): 238; IC50 Selectivity Ratio δ/κ [9, 19]: 231; IC50 Selectivity Ratio δ/μ [9, 19]: 122 |
| Oc1ccc2c3c1OC1c4c(c5ccccc5n4Cc4ccccc4)CC4(O)C(C2)N(CC2CC2)CCC314 (stereo not drawn) [benzylnaltrindole] | – | – | – | – | – | – | – | – | – | – | – | in vivo δ subtype selectivity (in words) [13]: δ2 -selective antagonists; lipophilicity (in words) [14]: considerably more lipophilic than 2 or 3 |
| Oc1ccc2c3c1O[C@H]1c4oc5ccccc5c4C[C@@]4(O)[C@@H](C2)N(CC2CC2)CC[C@]314 [naltriben (NTB), naltriben] | – | – | – | – | – | – | – | – | – | – | – | suppression of ethanol drinking (in words) [15]: unexpectedly prolonged suppression of ethanol drinking; in vivo δ subtype selectivity (in words) [13]: δ2 -selective antagonists; lipophilicity (in words) [14]: considerably more lipophilic than 2 or 3 |
